Assay results taken from PubChem BioAssay (NCI).
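Each compound was tested at five concentrations against cells in 96-well plates for 48 hours. Definition used: TGI = concentration required for complete inhibition of growth.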

What was measured:
Assay in all cases: NCI tumour cell line growth inhibition, 48 h
786-0 renal = system: 786-0 renal
A549 NSCLC = system: A549 NSCLC
ACHN renal = system: ACHN renal
CCRF-CEM leukemia = system: CCRF-CEM leukemia
COLO 205 colon = system: COLO 205 colon
DLD-1 colon = system: DLD-1 colon
DMS 114 small cell lung = system: DMS 114 small cell lung
DMS 273 small cell lung = system: DMS 273 small cell lung
EKVX NSCLC = system: EKVX NSCLC
HCC-2998 colon = system: HCC-2998 colon
HCT-116 colon = system: HCT-116 colon
HCT-15 colon = system: HCT-15 colon
HL-60(TB) leukemia = system: HL-60(TB) leukemia
HOP-18 NSCLC = system: HOP-18 NSCLC
HOP-62 NSCLC = system: HOP-62 NSCLC
HOP-92 NSCLC = system: HOP-92 NSCLC
IGROV1 ovarian = system: IGROV1 ovarian
K-562 leukemia = system: K-562 leukemia
KM12 colon = system: KM12 colon
KM20L2 colon = system: KM20L2 colon
LOX IMVI melanoma = system: LOX IMVI melanoma
LXFL 529 NSCLC = system: LXFL 529 NSCLC
M14 melanoma = system: M14 melanoma
M19-MEL melanoma = system: M19-MEL melanoma
MALME-3M melanoma = system: MALME-3M melanoma
MOLT-4 leukemia = system: MOLT-4 leukemia
NCI-H23 lung = system: NCI-H23 lung
NCI-H460 lung = system: NCI-H460 lung
NCI-H522 lung = system: NCI-H522 lung
OVCAR-3 ovarian = system: OVCAR-3 ovarian
OVCAR-5 ovarian = system: OVCAR-5 ovarian
OVCAR-8 ovarian = system: OVCAR-8 ovarian
RPMI-8226 leukemia = system: RPMI-8226 leukemia
RXF 393 renal = system: RXF 393 renal
SF-268 CNS = system: SF-268 CNS
SF-295 CNS = system: SF-295 CNS
SF-539 CNS = system: SF-539 CNS
SK-MEL-2 melanoma = system: SK-MEL-2 melanoma
SK-MEL-28 melanoma = system: SK-MEL-28 melanoma
SK-MEL-5 melanoma = system: SK-MEL-5 melanoma
SK-OV-3 ovarian = system: SK-OV-3 ovarian
SN12C renal = system: SN12C renal
SNB-19 CNS = system: SNB-19 CNS
SNB-78 CNS = system: SNB-78 CNS
SR leukemia = system: SR leukemia
SW-620 colon = system: SW-620 colon
TK-10 renal = system: TK-10 renal
U251 CNS = system: U251 CNS
UACC-257 melanoma = system: UACC-257 melanoma
UO-31 renal = system: UO-31 renal
A498 renal = system: A498 renal
BT-549 breast = system: BT-549 breast
CAKI-1 renal = system: CAKI-1 renal
DU-145 prostate = system: DU-145 prostate
HS 578T breast = system: HS 578T breast
HT29 colon = system: HT29 colon
MCF7 breast = system: MCF7 breast
MDA-MB-231 breast = system: MDA-MB-231 breast
MDA-MB-435 = system: MDA-MB-435
MDA-N = system: MDA-N
NCI-H226 lung = system: NCI-H226 lung
NCI/ADR-RES ovarian = system: NCI/ADR-RES ovarian
OVCAR-4 ovarian = system: OVCAR-4 ovarian
PC-3 prostate = system: PC-3 prostate
SNB-75 CNS = system: SNB-75 CNS
T-47D breast = system: T-47D breast
UACC-62 melanoma = system: UACC-62 melanoma
XF 498 CNS = system: XF 498 CNS

O=C(O)c1ccc(Nc2nc3nn(Cc4ccccc4)cc3c(=O)s2)cc1 gave a TGI (786-0 renal) of over 100 µM, a TGI (A549 NSCLC) of over 100 µM and a TGI (ACHN renal) of over 100 µM. The TGI (CCRF-CEM leukemia) was over 100 µM, the TGI (COLO 205 colon) was over 100 µM and the TGI (DLD-1 colon) was over 100 µM. For the same molecule, the TGI (DMS 114 small cell lung) was over 100 µM, the TGI (DMS 273 small cell lung) was over 100 µM and the TGI (EKVX NSCLC) was over 100 µM. It also gave a TGI (HCC-2998 colon) of over 100 µM, a TGI (HCT-116 colon) of over 100 µM and a TGI (HCT-15 colon) of over 100 µM. For the same molecule, the TGI (HL-60(TB) leukemia) was over 100 µM, the TGI (HOP-18 NSCLC) was over 100 µM and the TGI (HOP-62 NSCLC) was over 100 µM. It also gave a TGI (HOP-92 NSCLC) of over 100 µM, a TGI (IGROV1 ovarian) of over 100 µM and a TGI (K-562 leukemia) of over 100 µM. It also gave a TGI (KM12 colon) of over 100 µM, a TGI (KM20L2 colon) of over 100 µM and a TGI (LOX IMVI melanoma) of over 100 µM. The TGI (LXFL 529 NSCLC) was over 100 µM, the TGI (M14 melanoma) was over 100 µM and the TGI (M19-MEL melanoma) was over 100 µM. It also gave a TGI (MALME-3M melanoma) of over 100 µM, a TGI (MOLT-4 leukemia) of over 100 µM and a TGI (NCI-H23 lung) of over 100 µM. The TGI (NCI-H460 lung) was over 100 µM, the TGI (NCI-H522 lung) was over 100 µM and the TGI (OVCAR-3 ovarian) was over 100 µM. It also gave a TGI (OVCAR-5 ovarian) of over 100 µM, a TGI (OVCAR-8 ovarian) of over 100 µM and a TGI (RPMI-8226 leukemia) of over 100 µM. For the same molecule, the TGI (RXF 393 renal) was over 100 µM, the TGI (SF-268 CNS) was over 100 µM and the TGI (SF-295 CNS) was over 100 µM. The TGI (SF-539 CNS) was over 100 µM, the TGI (SK-MEL-2 melanoma) was over 100 µM and the TGI (SK-MEL-28 melanoma) was over 100 µM. It also gave a TGI (SK-MEL-5 melanoma) of over 100 µM, a TGI (SK-OV-3 ovarian) of over 100 µM and a TGI (SN12C renal) of over 100 µM. It also gave a TGI (SNB-19 CNS) of over 100 µM, a TGI (SNB-78 CNS) of over 100 µM and a TGI (SR leukemia) of over 100 µM. It also gave a TGI (SW-620 colon) of over 100 µM, a TGI (TK-10 renal) of over 100 µM and a TGI (U251 CNS) of over 100 µM. The TGI (UACC-257 melanoma) was over 100 µM and the TGI (UO-31 renal) was over 100 µM.

Molecule CCNC(=S)NNC(=O)CSc1nc2ccc(I)cc2c(=O)n1Cc1ccccc1 has a TGI (786-0 renal) of over 100 µM, a TGI (A498 renal) of over 78.2 µM and a TGI (A549 NSCLC) of over 100 µM. For the same molecule, the TGI (ACHN renal) was over 24.4 µM, the TGI (BT-549 breast) was over 100 µM and the TGI (CAKI-1 renal) was 1.65 µM. It also gave a TGI (CCRF-CEM leukemia) of over 100 µM, a TGI (COLO 205 colon) of over 100 µM and a TGI (DU-145 prostate) of over 100 µM. The TGI (EKVX NSCLC) was over 88 µM, the TGI (HCC-2998 colon) was over 85.7 µM and the TGI (HCT-116 colon) was over 77.1 µM. It also gave a TGI (HCT-15 colon) of over 100 µM, a TGI (HL-60(TB) leukemia) of over 34.7 µM and a TGI (HOP-62 NSCLC) of over 100 µM. For the same molecule, the TGI (HOP-92 NSCLC) was 97.7 µM, the TGI (HS 578T breast) was over 100 µM and the TGI (HT29 colon) was over 100 µM. For the same molecule, the TGI (IGROV1 ovarian) was over 100 µM, the TGI (K-562 leukemia) was over 100 µM and the TGI (KM12 colon) was over 100 µM. It also gave a TGI (LOX IMVI melanoma) of over 100 µM, a TGI (M14 melanoma) of over 100 µM and a TGI (MALME-3M melanoma) of over 67.8 µM. It also gave a TGI (MCF7 breast) of over 100 µM, a TGI (MDA-MB-231 breast) of over 100 µM and a TGI (MDA-MB-435) of over 100 µM. For the same molecule, the TGI (MDA-N) was over 100 µM, the TGI (MOLT-4 leukemia) was over 100 µM and the TGI (NCI-H226 lung) was over 95.5 µM. For the same molecule, the TGI (NCI-H23 lung) was over 100 µM, the TGI (NCI-H460 lung) was over 100 µM and the TGI (NCI-H522 lung) was over 100 µM. It also gave a TGI (NCI/ADR-RES ovarian) of over 100 µM, a TGI (OVCAR-3 ovarian) of over 100 µM and a TGI (OVCAR-4 ovarian) of over 95.5 µM. It also gave a TGI (OVCAR-5 ovarian) of over 100 µM, a TGI (OVCAR-8 ovarian) of over 70.4 µM and a TGI (PC-3 prostate) of over 100 µM. For the same molecule, the TGI (RPMI-8226 leukemia) was over 100 µM, the TGI (RXF 393 renal) was over 81 µM and the TGI (SF-268 CNS) was over 100 µM. It also gave a TGI (SF-295 CNS) of over 100 µM, a TGI (SF-539 CNS) of over 100 µM and a TGI (SK-MEL-2 melanoma) of over 94.9 µM. It also gave a TGI (SK-MEL-28 melanoma) of over 100 µM, a TGI (SK-MEL-5 melanoma) of over 100 µM and a TGI (SK-OV-3 ovarian) of over 100 µM. It also gave a TGI (SN12C renal) of over 100 µM, a TGI (SNB-19 CNS) of over 100 µM and a TGI (SNB-75 CNS) of over 100 µM. The TGI (SR leukemia) was over 100 µM, the TGI (SW-620 colon) was over 100 µM and the TGI (T-47D breast) was over 100 µM. It also gave a TGI (TK-10 renal) of over 100 µM, a TGI (U251 CNS) of over 100 µM and a TGI (UACC-257 melanoma) of over 87.1 µM. It also gave a TGI (UACC-62 melanoma) of over 100 µM and a TGI (UO-31 renal) of 0.136 µM.

Clc1ccc(OCc2nnc3n2N=C(c2ccccc2)CS3)c(Cl)c1 showed a TGI (786-0 renal) of over 100 µM, a TGI (A498 renal) of 76.8 µM and a TGI (A549 NSCLC) of over 100 µM. The TGI (ACHN renal) was over 100 µM, the TGI (CAKI-1 renal) was over 100 µM and the TGI (CCRF-CEM leukemia) was over 100 µM. It also gave a TGI (DLD-1 colon) of over 100 µM, a TGI (DMS 114 small cell lung) of over 100 µM and a TGI (DMS 273 small cell lung) of over 100 µM. The TGI (HCC-2998 colon) was over 100 µM, the TGI (HCT-116 colon) was over 100 µM and the TGI (HCT-15 colon) was over 100 µM. The TGI (HL-60(TB) leukemia) was over 100 µM, the TGI (HOP-92 NSCLC) was over 100 µM and the TGI (HT29 colon) was over 100 µM. The TGI (IGROV1 ovarian) was over 100 µM, the TGI (K-562 leukemia) was over 100 µM and the TGI (KM12 colon) was over 100 µM. For the same molecule, the TGI (LOX IMVI melanoma) was 5.87 µM, the TGI (LXFL 529 NSCLC) was over 100 µM and the TGI (M19-MEL melanoma) was over 100 µM. For the same molecule, the TGI (MALME-3M melanoma) was over 100 µM, the TGI (MOLT-4 leukemia) was over 100 µM and the TGI (NCI-H226 lung) was over 100 µM. For the same molecule, the TGI (NCI-H23 lung) was over 100 µM, the TGI (NCI-H460 lung) was over 100 µM and the TGI (NCI-H522 lung) was over 100 µM. The TGI (OVCAR-4 ovarian) was over 100 µM, the TGI (OVCAR-5 ovarian) was over 100 µM and the TGI (OVCAR-8 ovarian) was over 100 µM. For the same molecule, the TGI (RXF 393 renal) was over 100 µM, the TGI (SF-268 CNS) was over 100 µM and the TGI (SF-295 CNS) was 86.6 µM. The TGI (SF-539 CNS) was 91.1 µM, the TGI (SK-MEL-2 melanoma) was over 100 µM and the TGI (SK-MEL-28 melanoma) was over 100 µM. For the same molecule, the TGI (SK-MEL-5 melanoma) was over 100 µM, the TGI (SK-OV-3 ovarian) was over 100 µM and the TGI (SNB-19 CNS) was over 100 µM. It also gave a TGI (SNB-75 CNS) of 19.6 µM, a TGI (SNB-78 CNS) of over 100 µM and a TGI (SR leukemia) of over 100 µM. The TGI (SW-620 colon) was over 100 µM, the TGI (TK-10 renal) was over 100 µM and the TGI (U251 CNS) was over 100 µM. For the same molecule, the TGI (UACC-257 melanoma) was over 100 µM, the TGI (UACC-62 melanoma) was over 100 µM and the TGI (UO-31 renal) was 8.46 µM. For the same molecule, the TGI (XF 498 CNS) was over 100 µM.
